# Marks after values point to notes of the source that are not given here.
# Experiments:
# Type in all cases: in vivo
# [1] = tested on: Zymoseptoria tritici (the causal agent of wheat leaf blotch); assay: Test B: preventive spray on wheat seedlings, wheat leaf blotch, visual disease rating; conditions: wheat seedlings
# Method in brief: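 This is a preventive test: spray application preceded Zymoseptoria tritici spore inoculation by one day. Test suspensions were in acetone/water with 250 ppm PEG400 surfactant, at the listed ppm rate. After 48 h saturated humidity at 24° C and 17 days at 20° C, visual ratings scored control from 0 to 100%.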
# [2] = tested on: Phakopsora pachyrhizi (the causal agent of Asian soybean rust); assay: Test A: preventive spray on soybean seedlings, Asian soybean rust, visual disease rating; conditions: soybean seedlings
# Method in brief: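 Compound in acetone/water (50/50) with 250 ppm PEG400 sprayed to run-off on soybean seedlings; inoculated next day with Phakopsora pachyrhizi spores. Held 24 h at 22° C in saturated atmosphere, then 8 days in a 22° C growth chamber before visual rating as % disease control relative to controls.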
# [3] = tested on: Puccinia recondita f. sp. tritici (the causal agent of wheat leaf rust); assay: Test C: preventive spray on wheat seedlings, wheat leaf rust, visual disease rating; conditions: wheat seedlings
# Method in brief: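 Wheat seedlings sprayed to run-off with compound in acetone/water (50/50) with 250 ppm PEG400, then inoculated with spores the following day. After 24 h saturated humidity at 20° C. and 6 days in growth chamber at 20° C., disease rated visually as % control relative to untreated controls.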
# [4] = test suspension 10 ppm, 100 = 100% disease control, 0 = no control
# [5] = Zymoseptoria tritici, 456 h, test suspension 250 ppm
# [6] = Phakopsora pachyrhizi, 216 h, test suspension 50 ppm
# [7] = Puccinia recondita, 168 h, test suspension 50 ppm
# [8] = Phakopsora pachyrhizi, 216 h, test suspension 250 ppm
# [9] = Puccinia recondita, 168 h, test suspension 250 ppm
# [10] = 10 ppm test suspension, 100 = 100% disease control, 0 = no control
# [11] = 250 ppm test suspension, 100 = 100% disease control
smiles,measurement,setting,value
CN(C)N=Cc1cnn(Cc2ccc(-c3noc(C(F)(F)F)n3)cc2)c1 [compound 19],Test B disease control rating,[1]; test suspension 250 ppm,100%
same,Test A disease control rating,[2]; test suspension 250 ppm,100%
same,Test C disease control rating,[3]; test suspension 250 ppm,100%
O=C(NC1CC1)c1coc(Cc2ccc(-c3noc(C(F)(F)F)n3)cc2)n1 [compound 260],Test B disease control rating,[1]; test suspension 250 ppm,47* %
same,Test A disease control rating,[2]; [4],100%
same,Test C disease control rating,[3]; test suspension 10 ppm,100%
Cn1c(C(F)(F)F)nn(CCCc2ccc(-c3noc(C(F)(F)F)n3)cc2)c1=O [compound 240],Test B disease control rating,[1]; test suspension 250 ppm,4%
same,Test A disease control rating,[2]; test suspension 250 ppm,100%
same,Test C disease control rating,[3]; test suspension 250 ppm,100%
O=C(NCC(F)(F)F)c1csc(Cc2ccc(-c3noc(C(F)(F)F)n3)cc2)c1 [compound 286],Test B disease control rating,[1]; test suspension 250 ppm,3* %
same,Test A disease control rating,[2]; [4],100%
same,Test C disease control rating,[3]; test suspension 10 ppm,100%
CCOC(=O)c1cnn(Cc2ccc(-c3noc(C(F)(F)F)n3)o2)c1 [compound 210],Test B disease control rating,[1]; test suspension 250 ppm,63* %
same,Test A disease control rating,[2]; test suspension 50 ppm,100%
same,Test C disease control rating,[3]; test suspension 50 ppm,99%
CN(C)C(=O)C1=NOC(CCOc2cccc(-c3noc(C(F)(F)F)n3)c2)C1 (stereo not drawn) [compound 224],pest or weed control at 250 µg/mL,[1]; [5],81%
same,pest or weed control at 50 µg/mL,[2]; [6],100%
same,pest or weed control at 50 µg/mL,[3]; [7],89%
O=C(NCC(F)(F)F)c1cnn(COc2ccc(-c3noc(C(F)(F)F)n3)cc2)c1 [compound 212],Test B disease control rating,[1]; test suspension 250 ppm,79* %
same,Test A disease control rating,[2]; [4],100%
same,Test C disease control rating,[3]; test suspension 10 ppm,100%
FC(F)(F)c1nc(-c2ccc(Cn3ncc4ccccc43)cc2)no1 [compound 143],Test B disease control rating,[1]; test suspension 250 ppm,71%
same,Test A disease control rating,[2]; test suspension 250 ppm,100%
same,Test C disease control rating,[3]; test suspension 250 ppm,100%
"N#Cc1cnn(Cc2ccc(-c3noc(C(F)(F)F)n3)cc2)c1 [Compound 95, 1-[[4-[5-(trifluoromethyl)-1,2,4-oxadiazol-3-yl]phenyl]methyl]-1H-pyrazole-4-carbonitrile]",pest or weed control at 250 µg/mL,[1]; [5],87%
same,pest or weed control at 250 µg/mL,[2]; [8],100%
same,pest or weed control at 250 µg/mL,[3]; [9],100%
N#CCNC(=O)c1cnn(COc2ccc(-c3noc(C(F)(F)F)n3)cc2)c1 [compound 214],Test B disease control rating,[1]; test suspension 250 ppm,73* %
same,Test A disease control rating,[2]; [4],100%
same,Test C disease control rating,[3]; test suspension 10 ppm,74%
FC(F)(F)c1nc(-c2ccc(OCc3ccon3)cc2)no1 [compound 318],Test B disease control rating,[1]; test suspension 250 ppm,11* %
same,Test A disease control rating,[2]; [4],0%
same,Test C disease control rating,[3]; test suspension 10 ppm,0%
FC(F)(F)c1nc(-c2ccc(Cn3cc(Br)cn3)cc2)no1 [compound 163],Test B disease control rating,[1]; test suspension 250 ppm,0%
same,Test A disease control rating,[2]; test suspension 250 ppm,100%
same,Test C disease control rating,[3]; test suspension 250 ppm,100%
CCOC(=O)c1cnn(Cc2cccc(-c3noc(C(F)(F)F)n3)c2)c1 [compound 276],pest or weed control at 250 µg/mL,[1]; [5],35%
same,pest or weed control at 50 µg/mL,[2]; [6],100%
same,pest or weed control at 50 µg/mL,[3]; [7],80%
COC(CNC(=O)c1coc(Cc2ccc(-c3noc(C(F)(F)F)n3)cc2)n1)OC [compound 278],Test B disease control rating,[1]; test suspension 250 ppm,98* %
same,Test A disease control rating,[2]; [4],100%
same,Test C disease control rating,[3]; test suspension 10 ppm,100%
O=C(c1csc(Cc2ccc(-c3noc(C(F)(F)F)n3)cc2)n1)N1CCOCC1 [compound 487],Test B disease control rating,"[1]; 100 ppm test suspension (double asterisk), 100 = 100% disease control",98** %
same,Test A disease control rating,[2]; [10],100%
same,Test C disease control rating,[3]; [10],100%
FC(F)(F)c1nc(-c2ccc(Cn3nc(Cl)c4ccccc43)cc2)no1 [compound 116],Test B disease control rating,[1]; test suspension 265 ppm,25%
same,Test A disease control rating,[2]; test suspension 265 ppm,100%
same,Test C disease control rating,[3]; test suspension 265 ppm,99%
CCOC(=O)c1cccc(Cc2ccc(-c3noc(C(F)(F)F)n3)cc2)c1 [Compound 454],Test B disease control rating,[1]; [11],47* %
same,Test A disease control rating,[2]; [10],100%
same,Test C disease control rating,[3]; [10],0%
CCOC(=O)c1ccc(Cc2ccc(-c3noc(C(F)(F)F)n3)cc2)cc1 [compound 453],Test B disease control rating,[1]; [11],50* %
same,Test A disease control rating,[2]; [10],92%
same,Test C disease control rating,[3]; [10],0%
CCCOC(=O)c1cnn(CCCc2ccc(-c3noc(C(F)(F)F)n3)cc2)c1 [compound 365],Test B disease control rating,[1]; test suspension 250 ppm,80* %
same,Test A disease control rating,[2]; test suspension 50 ppm,100%
same,Test C disease control rating,[3]; test suspension 50 ppm,99%
N#Cc1ccc2ccn(Cc3ccc(-c4noc(C(F)(F)F)n4)cc3)c2c1 [compound 88],Test B disease control rating,[1]; test suspension 250 ppm,93%
same,Test A disease control rating,[2]; test suspension 250 ppm,100%
same,Test C disease control rating,[3]; test suspension 250 ppm,100%
N#Cc1csc(Cc2ccc(-c3noc(C(F)(F)F)n3)cc2)n1 [compound 370],Test B disease control rating,[1]; test suspension 250 ppm,98* %
same,Test A disease control rating,[2]; test suspension 250 ppm,100%
same,Test C disease control rating,[3]; test suspension 250 ppm,100%
CCCc1nn(Cc2ccc(-c3noc(C(F)(F)F)n3)cc2)c(=O)n1C [compound 238],Test B disease control rating,[1]; test suspension 250 ppm,87%
same,Test A disease control rating,[2]; test suspension 250 ppm,100%
same,Test C disease control rating,[3]; test suspension 250 ppm,100%
O=C(NCC=C(Cl)Cl)c1coc(Cc2ccc(-c3noc(C(F)(F)F)n3)cc2)n1 [compound 399],Test B disease control rating,[1]; [11],10* %
same,Test A disease control rating,[2]; [10],100%
same,Test C disease control rating,[3]; [10],99%
CN(C)N1C(=O)C(Cl)=C(Oc2ccc(-c3noc(C(F)(F)F)n3)cc2)C1=O [compound 356],Test B disease control rating,[1]; test suspension 250 ppm,96* %
same,Test A disease control rating,[2]; test suspension 250 ppm,99%
same,Test C disease control rating,[3]; test suspension 250 ppm,94%
COC(=O)c1ncn(Cc2ccc(-c3noc(C(F)(F)F)n3)cc2)n1 [compound 139],Test B disease control rating,[1]; test suspension 255 ppm,62%
same,Test A disease control rating,[2]; test suspension 255 ppm,100%
same,Test C disease control rating,[3]; test suspension 255 ppm,100%
"N#CC(Nc1ccccc1)c1ccc(-c2noc(C(F)(F)F)n2)cc1 (stereo not drawn) [Compound 13, α-(phenylamino)-4-[5-(trifluoromethyl)-1,2,4-oxadiazol-3-yl]benzeneacetonitrile]",pest or weed control at 250 µg/mL,[1]; [5],85%
same,pest or weed control at 250 µg/mL,[2]; [8],100%
same,pest or weed control at 250 µg/mL,[3]; [9],100%
O=c1sc2ccccc2n1Cc1ccc(-c2noc(C(F)(F)F)n2)cc1 [compound 156],Test B disease control rating,[1]; test suspension 255 ppm,86%
same,Test A disease control rating,[2]; test suspension 255 ppm,100%
same,Test C disease control rating,[3]; test suspension 255 ppm,100%
COCCNC(=O)c1ccc(Cc2ccc(-c3noc(C(F)(F)F)n3)cc2)cc1 [Compound 282],Test B disease control rating,[1]; test suspension 250 ppm,94* %
same,Test A disease control rating,[2]; [4],100%
same,Test C disease control rating,[3]; test suspension 10 ppm,97%
CCOC(=O)c1c2ccccc2nn1Cc1ccc(-c2noc(C(F)(F)F)n2)cc1 [compound 123],Test B disease control rating,[1]; test suspension 255 ppm,21%
same,Test A disease control rating,[2]; test suspension 255 ppm,100%
same,Test C disease control rating,[3]; test suspension 255 ppm,99%
Fc1cccc2c1cnn2Cc1ccc(-c2noc(C(F)(F)F)n2)cc1 [compound 125],Test B disease control rating,[1]; test suspension 260 ppm,55%
same,Test A disease control rating,[2]; test suspension 260 ppm,100%
same,Test C disease control rating,[3]; test suspension 260 ppm,100%
C#CCNC(=O)C1=NOC(Cc2ccc(-c3noc(C(F)(F)F)n3)cc2)C1 (stereo not drawn) [compound 176],Test B disease control rating,[1]; test suspension 250 ppm,92%
same,Test A disease control rating,[2]; test suspension 250 ppm,100%
same,Test C disease control rating,[3]; test suspension 250 ppm,100%
O=C(NCCn1cccn1)c1csc(Cc2ccc(-c3noc(C(F)(F)F)n3)cc2)c1 [compound 289],Test B disease control rating,[1]; test suspension 250 ppm,80* %
same,Test A disease control rating,[2]; [4],100%
same,Test C disease control rating,[3]; test suspension 10 ppm,100%
FC(F)(F)c1nc(-c2ccc(CN3CCOCC3)cc2)no1 [compound 96],Test B disease control rating,[1]; test suspension 250 ppm,0%
same,Test A disease control rating,[2]; test suspension 250 ppm,100%
same,Test C disease control rating,[3]; test suspension 250 ppm,99%
CCCOC(=O)c1cnn(COc2ccc(-c3noc(C(F)(F)F)n3)cc2)c1 [compound 217],Test B disease control rating,[1]; test suspension 250 ppm,35* %
same,Test A disease control rating,[2]; [4],100%
same,Test C disease control rating,[3]; test suspension 10 ppm,86%
"Cn1c(=O)n(Cc2ccc(-c3noc(C(F)(F)F)n3)cc2)c2ccccc21 [Compound 159, 1,3-dihydro-1-methyl-3-[[4-[5-(trifluoromethyl)-1,2,4-oxadiazol-3-yl]phenyl]methyl]-2H-benzimidazol-2-one]",pest or weed control at 260 µg/mL,"[1]; Zymoseptoria tritici, 456 h, test suspension 260 ppm",87%
same,pest or weed control at 260 µg/mL,"[2]; Phakopsora pachyrhizi, 216 h, test suspension 260 ppm",100%
same,pest or weed control at 260 µg/mL,"[3]; Puccinia recondita, 168 h, test suspension 260 ppm",100%
COC(=O)c1csc(Cc2ccc(-c3noc(C(F)(F)F)n3)cc2)c1 [Compound 455],Test B disease control rating,[1]; [11],66* %
same,Test A disease control rating,[2]; [10],100%
same,Test C disease control rating,[3]; [10],0%
"CN(C)C(=O)C1=NOC(Cc2ccc(-c3noc(C(F)(F)F)n3)cc2)C1 (stereo not drawn) [Compound 12, 4,5-dihydro-N,N-dimethyl-5-[[4-[5-(trifluoromethyl)-1,2,4-oxadiazol-3-yl]phenyl]methyl]-3-isoxazolecarboxamide]",pest or weed control at 255 µg/mL,"[1]; Zymoseptoria tritici, 456 h, test suspension 255 ppm",98%
same,pest or weed control at 255 µg/mL,"[2]; Phakopsora pachyrhizi, 216 h, test suspension 255 ppm",100%
same,pest or weed control at 255 µg/mL,"[3]; Puccinia recondita, 168 h, test suspension 255 ppm",100%
FC(F)(F)c1nc(-c2ccc(Cn3ncc4cc(Cl)ccc43)cc2)no1 [compound 119],Test B disease control rating,[1]; test suspension 265 ppm,54%
same,Test A disease control rating,[2]; test suspension 265 ppm,100%
same,Test C disease control rating,[3]; test suspension 265 ppm,100%

# Reference: patent publication US20240090503A1, “FUNGICIDAL OXADIAZOLES AND THEIR MIXTURES” (FMC CORPORATION, priority 2020, published 2024)
